Eight molecules from patent US20060160820A1, “Substituted piperazine carbamates” (Novo Nordisk A/S, priority 2003, published 2006) can be followed below.

Usually melting point stands for the temperature, or range, at which the solid turns liquid.

Structures can show the parent of a compound that is named as a salt.

The first data set has as its target T1, Hormone-sensitive lipase (HSL) (Homo sapiens, UniProt Q05469).
T1 construct: made in house
T1 sequence (Q05469 1-775 isoform Q05469-2): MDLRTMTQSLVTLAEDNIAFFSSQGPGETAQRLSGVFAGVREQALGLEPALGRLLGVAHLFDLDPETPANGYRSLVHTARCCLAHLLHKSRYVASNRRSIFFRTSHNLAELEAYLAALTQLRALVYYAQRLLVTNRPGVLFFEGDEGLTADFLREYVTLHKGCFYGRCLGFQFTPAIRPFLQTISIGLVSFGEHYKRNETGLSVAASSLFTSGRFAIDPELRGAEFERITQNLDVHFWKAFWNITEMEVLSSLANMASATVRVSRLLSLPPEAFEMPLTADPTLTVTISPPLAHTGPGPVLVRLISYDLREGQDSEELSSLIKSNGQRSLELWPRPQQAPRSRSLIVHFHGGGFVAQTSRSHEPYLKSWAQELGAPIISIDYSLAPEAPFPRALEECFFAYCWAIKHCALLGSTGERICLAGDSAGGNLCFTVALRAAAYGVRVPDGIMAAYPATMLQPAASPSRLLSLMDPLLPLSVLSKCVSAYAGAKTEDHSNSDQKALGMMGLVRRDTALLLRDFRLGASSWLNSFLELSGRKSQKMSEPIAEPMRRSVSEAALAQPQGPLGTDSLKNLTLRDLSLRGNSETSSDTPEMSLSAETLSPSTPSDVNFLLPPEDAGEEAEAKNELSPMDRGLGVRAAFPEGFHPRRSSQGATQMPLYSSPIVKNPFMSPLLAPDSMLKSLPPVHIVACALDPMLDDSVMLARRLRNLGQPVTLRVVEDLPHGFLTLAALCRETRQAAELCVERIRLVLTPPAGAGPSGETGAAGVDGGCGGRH
As to the kind of experiment: 3190.1: percent inhibition of hormone sensitive lipase, fluorochrome-labeled triacylglyceride emulsion. It is filed as biochemical. As to conditions: 10 μM sample concentration; preincubated 30 min at 25° C.; 120 min incubation at 37° C.; remaining activity; read-out: 3190.1 HSL_FL % ACTIVITY (% activity relative to non-inhibited sample). The text has this:
The Hormone-sensitive lipase was provided by Dr. Cecilia Holm, from Lund University Sweden or produced and purified by Novo Nordisk (NN) using the reagents and protocols used by Dr. Holm. The substrates used are: ^3H-labeled triolein (TO) from Amersham, Buckinghamshire, U.K. cat No. TRA191; 5-20 Ci/mmol dissolved in toluene, triolein (Sigma, Cat. No. T-1740), fluorochrome-labeled triacylglyceride (cis-octadec-9-enoic acid 2-[12-(7-nitrobenzo[1,2,5]oxadiazol-4-ylamino)dodecanoyloxy]-1-cis-octadec-9-enoyloxymethyl-ethyl ester) prepared by Novo Nordisk (NN) by conventional methods, and 1,3-(di[^3H]-stearin), 2-(PEG-Biotin)glycerol prepared in collaboration with Amersham Pharmacia Biotech, UK and described in WO 01/073442. Phosphatidyl choline (PC) and phosphatidyl inositol (PI) are from Sigma (St Luis MO cat. Nos. P-3556 and P-5954 respectively). All other reagents are of commercial grade and obtained from various commercial sources.
3190.1: Assay for determination of percent inhibition of hormone sensitive lipase by compound at 10 μM sample concentration.
A lipid emulsion with fluorochrome-labeled triacylglyceride and phospholipid is used as substrate with a standard concentration of highly purified HSL (12 μg/mL initial concentration corresponding to 600 ng/mL final concentration). BSA is added as product acceptor. The transfer of the fluorochrome from the lipid phase to the water (BSA) phase changes the fluorescent properties of the fluorochrome. The changes can be monitored on a fluorimeter with an excitation wavelength of 450 nm and an emission wavelength of 545 nm.
Compound and HSL (20 μL compound, 10 μL enzyme and 70 μL PED-BSA buffer) is preincubated for 30 min at 25° C. before addition of substrate (100 μL). Amount of formed product is measured after 120 min incubation at 37° C.
Results are given as percent activity relative to a non-inhibited sample (no compound).
As for `O=C(Oc1ccc(Cc2ccc(C(F)(F)F)cc2)cc1)N1CCN(Cc2ccccn2)CC1` [Example 2, 4-Pyridin-2-ylmethyl-piperazine-1-carboxylic acid 4-(4-trifluoromethyl-benzyl)-phenyl ester], the activity at 10 µM was determined as 4%.
For `O=C(Oc1ccc(Oc2ccc(C(F)(F)F)cn2)cc1)N1CCN(CCCc2cccnc2)CC1` [Example 8, 4-(3-Pyridin-3-yl-propyl)-piperazine-1-carboxylic acid 4-(5-trifluoromethyl-pyridin-2-yloxy)-phenyl ester], the activity at 10 µM stood at 1%.
`O=C(Oc1ccc(Cc2ccc(C(F)(F)F)cc2)cc1)N1CCN(CCc2ccccn2)CC1` [Example 1, 4-(2-Pyridin-2-yl-ethyl)-piperazine-1-carboxylic acid 4-(4-trifluoromethyl-benzyl)-phenyl ester]: the activity at 10 µM came to 6%.
The same measure, in the same setting: in the case of `CC1(C)CC(=O)N(c2ccc(OC(=O)N3CCN(Cc4ccccn4)CC3)nc2)C(=O)C1` [Example 4, 4-Pyridin-2-ylmethyl-piperazine-1-carboxylic acid 4,4-dimethyl-2,6-dioxo-3,4,5,6-tetrahydro-2H-[1,3′]bipyridinyl-6′-yl ester] it was 64%; in that of `O=C(Oc1ccc(Oc2ccc(C(F)(F)F)cn2)cc1)N1CCN(CCc2cccnc2)CC1` [Example 9, 4-(2-Pyridin-3-yl-ethyl)-piperazine-1-carboxylic acid 4-(5-trifluoromethyl-pyridin-2-yloxy)-phenyl ester], 2%.
The same measure, in the same setting: in the case of `CC1(C)CC(=O)N(CCc2ccc(OC(=O)N3CCN(CCc4ccccn4)CC3)cc2)C(=O)C1` [Example 7, 4-(2-Pyridin-2-yl-ethyl)-piperazine-1-carboxylic acid 4-[2-(4,4-dimethyl-2,6-dioxo-piperidin-1-yl)-ethyl]-phenyl ester] it was 8%.

Tested on in another data set: not given
Assay: not given
Settings: not given
In turn, `O=C(Oc1ccc(Oc2ccc(C(F)(F)F)cn2)cc1)N1CCN(CCCc2ccccn2)CC1` displayed a melting point of 204 to 205 °C.
Molecule `O=C(Oc1ccc(Oc2ccc(C(F)(F)F)cn2)cc1)N1CCN(CCCc2cccnc2)CC1` (as salt: hydrochloride) [Example 8, 4-(3-Pyridin-3-yl-propyl)-piperazine-1-carboxylic acid 4-(5-trifluoromethyl-pyridin-2-yloxy)-phenyl ester] yielded a melting point of 203 to 208 °C.
